Laboratory results taken from ChEMBL document CHEMBL1201862, “PubChem BioAssay data set” (2004).
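Dose response: 5 concentrations. Exposure: 48 h. Format: 96-well plates. Endpoint: linear interpolation; highest concentration if not reached. The concentration for 50% growth inhibition is given as GI50.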 Active and inactive are the calls of the source. No stated cut-off is given here; in the data, active = GI50 up to about 1.1 µM and inactive = higher.

Key:
Experiment in all cases: growth of human tumour cells (NCI), 48 h
OVCAR-8 = tested on: OVCAR-8
UACC-62 = tested on: UACC-62
A498 = tested on: A498
SF-268 = tested on: SF-268
UACC-257 = tested on: UACC-257
ACHN = tested on: ACHN
UO-31 = tested on: UO-31
Malme-3M = tested on: Malme-3M
SNB-75 = tested on: SNB-75
SN12C = tested on: SN12C
EKVX = tested on: EKVX
786-0 = tested on: 786-0
M19-MEL = tested on: M19-MEL
HL-60 = tested on: HL-60
CAKI-1 = tested on: CAKI-1
NCI-H226 = tested on: NCI-H226
MDA-N = tested on: MDA-N
T47D = tested on: T47D
MDA-MB-435 = tested on: MDA-MB-435
NCI/ADR-RES = tested on: NCI/ADR-RES

SMILES | GI50 (OVCAR-8) | GI50 (UACC-62) | GI50 (A498) | GI50 (SF-268) | GI50 (UACC-257) | GI50 (ACHN) | GI50 (UO-31) | GI50 (Malme-3M) | GI50 (SNB-75) | GI50 (SN12C) | GI50 (EKVX) | GI50 (786-0) | GI50 (M19-MEL) | GI50 (HL-60) | GI50 (CAKI-1) | GI50 (NCI-H226) | GI50 (MDA-N) | GI50 (T47D) | GI50 (MDA-MB-435) | GI50 (NCI/ADR-RES)
Cc1cc2c(C=O)n[nH]c2c(C#N)c1C | 43 µM (inactive) | 43.3 µM (inactive) | 29.2 µM (inactive) | 31.9 µM (inactive) | 43.5 µM (inactive) | 63.5 µM (inactive) | 34.5 µM (inactive) | > 100 µM (inactive) | 7.43 µM (inactive) | 29.3 µM (inactive) | > 100 µM (inactive) | > 100 µM (inactive) | 60.8 µM (inactive) | – | – | – | – | – | – | –
COc1ccc2cc3n(c2c1)CCc1cc(OC)c(OC)cc1-3 | > 100 µM (inactive) | 71.8 µM (inactive) | 28.4 µM (inactive) | > 100 µM (inactive) | 92.3 µM (inactive) | > 100 µM (inactive) | > 100 µM (inactive) | – | – | > 100 µM (inactive) | > 100 µM (inactive) | > 100 µM (inactive) | > 100 µM (inactive) | > 100 µM (inactive) | > 100 µM (inactive) | > 100 µM (inactive) | – | – | – | –
CC/C(=N/O)c1ccc2[nH]c3c(C)cc([N+](=O)[O-])c(C)c3c2c1 | 53.2 µM (inactive) | – | – | 61.4 µM (inactive) | 95.1 µM (inactive) | 25.1 µM (inactive) | 57.8 µM (inactive) | 51.3 µM (inactive) | 57.3 µM (inactive) | 76.2 µM (inactive) | > 100 µM (inactive) | 36 µM (inactive) | 50.2 µM (inactive) | 12.7 µM (inactive) | > 100 µM (inactive) | > 100 µM (inactive) | – | – | – | –
N#CC(C(=N/O)/C(=N\O)C(C#N)c1ccccc1)c1ccccc1 (stereo not given) | > 100 µM (inactive) | > 100 µM (inactive) | > 100 µM (inactive) | > 100 µM (inactive) | > 100 µM (inactive) | > 100 µM (inactive) | > 100 µM (inactive) | > 100 µM (inactive) | > 100 µM (inactive) | > 100 µM (inactive) | > 100 µM (inactive) | > 100 µM (inactive) | 99.1 µM (inactive) | > 100 µM (inactive) | – | > 100 µM (inactive) | – | – | – | –
CCOC(=O)/C(=C/c1ccc(C(=O)OC)cc1)N(CC)CC | 63 µM (inactive) | 53.5 µM (inactive) | – | 40.1 µM (inactive) | 57.3 µM (inactive) | 60.5 µM (inactive) | 37.2 µM (inactive) | 90.4 µM (inactive) | – | 70.8 µM (inactive) | 35.4 µM (inactive) | 41 µM (inactive) | 51.1 µM (inactive) | 27.4 µM (inactive) | 41.6 µM (inactive) | 35.1 µM (inactive) | – | – | – | –
COc1ccc(CC2NCCc3cc(OC)c(OC)cc32)cc1 (stereo not given) | > 100 µM (inactive) | > 100 µM (inactive) | – | > 100 µM (inactive) | > 100 µM (inactive) | > 100 µM (inactive) | > 85.3 µM (inactive) | > 100 µM (inactive) | > 100 µM (inactive) | > 100 µM (inactive) | > 100 µM (inactive) | > 100 µM (inactive) | > 100 µM (inactive) | > 100 µM (inactive) | > 100 µM (inactive) | > 100 µM (inactive) | – | – | – | –
C[C@@H](NC1CCCC[C@H]1O)c1ccccc1 (stereo not given in full) | > 100 µM (inactive) | > 100 µM (inactive) | > 100 µM (inactive) | > 100 µM (inactive) | > 100 µM (inactive) | > 100 µM (inactive) | > 100 µM (inactive) | > 100 µM (inactive) | 77.6 µM (inactive) | > 100 µM (inactive) | > 100 µM (inactive) | > 100 µM (inactive) | > 100 µM (inactive) | > 100 µM (inactive) | – | > 100 µM (inactive) | – | – | – | –
C=CCO/N=C/c1cc(/N=C(/S)c2ccoc2C)ccc1Cl | 13.5 µM (inactive) | 14.4 µM (inactive) | 20 µM (inactive) | 14.8 µM (inactive) | 14.9 µM (inactive) | 5.71 µM (inactive) | 5.15 µM (inactive) | 15 µM (inactive) | 15.7 µM (inactive) | 12.8 µM (inactive) | 11.9 µM (inactive) | 22.6 µM (inactive) | – | 20.6 µM (inactive) | 9.84 µM (inactive) | 15.9 µM (inactive) | 13.6 µM (inactive) | 3.65 µM (inactive) | 19.1 µM (inactive) | 7.26 µM (inactive)
Cc1c2c(OCCN3CCCCC3)nn(C)c(=O)c2c(C)n1-c1ccccc1 | 74.8 µM (inactive) | 25.8 µM (inactive) | 16.4 µM (inactive) | 53.1 µM (inactive) | 22.1 µM (inactive) | 28.5 µM (inactive) | 12.2 µM (inactive) | 19.1 µM (inactive) | 19.5 µM (inactive) | 56.1 µM (inactive) | 50.6 µM (inactive) | 18.8 µM (inactive) | – | 31 µM (inactive) | 32.9 µM (inactive) | 38 µM (inactive) | 35.1 µM (inactive) | 41.2 µM (inactive) | 32.3 µM (inactive) | 42.4 µM (inactive)
COc1ccc2cc(CNCCCN3CCN(CCCNCc4ccc5cc(OC)ccc5c4)CC3)ccc2c1 | 1.73 µM (inactive) | 0.569 µM (active) | 1.66 µM (inactive) | 1.77 µM (inactive) | 2.22 µM (inactive) | 1.8 µM (inactive) | 1.76 µM (inactive) | 1.72 µM (inactive) | 1.62 µM (inactive) | 1.69 µM (inactive) | 1.73 µM (inactive) | 1.55 µM (inactive) | – | 0.24 µM (active) | 1.78 µM (inactive) | 1.91 µM (inactive) | 1.44 µM (inactive) | 1.32 µM (inactive) | 1.6 µM (inactive) | 2.21 µM (inactive)
COc1cc(C(=O)N(C(=S)OC23CC4CC(CC(C4)C2)C3)c2ccccc2)cc(OC)c1OC | 27 µM (inactive) | 22 µM (inactive) | 24.9 µM (inactive) | 35.6 µM (inactive) | 26.4 µM (inactive) | 29.6 µM (inactive) | 19.1 µM (inactive) | 29.1 µM (inactive) | 66.1 µM (inactive) | 28.6 µM (inactive) | 14.8 µM (inactive) | 25.6 µM (inactive) | – | 9.73 µM (inactive) | 31.3 µM (inactive) | 21.5 µM (inactive) | 25.1 µM (inactive) | 43.2 µM (inactive) | 29.5 µM (inactive) | 22.8 µM (inactive)
CC1(C)CCCC2(C)C3=C(CCC12)C(=O)OC3 (stereo not given) | > 100 µM (inactive) | 93.5 µM (inactive) | > 100 µM (inactive) | > 100 µM (inactive) | > 100 µM (inactive) | > 100 µM (inactive) | 38.9 µM (inactive) | > 100 µM (inactive) | > 100 µM (inactive) | > 100 µM (inactive) | > 100 µM (inactive) | > 100 µM (inactive) | – | 17.6 µM (inactive) | 53.6 µM (inactive) | > 100 µM (inactive) | > 100 µM (inactive) | 59.2 µM (inactive) | > 100 µM (inactive) | 86.3 µM (inactive)
